Laboratory results reported in PubChem BioAssay (NCI).
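A five-concentration, 48-hour dose response in 96-well plates underlies each endpoint, interpolated linearly between surrounding concentrations. Here, GI50 denotes the concentration required for 50% inhibition of growth. TGI: concentration producing complete growth inhibition.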

Tests used:
Assay in all cases: NCI-60 cell line screen, 48 h
786-0 renal = system: 786-0 renal
A498 renal = system: A498 renal
A549 NSCLC = system: A549 NSCLC
ACHN renal = system: ACHN renal
DU-145 prostate = system: DU-145 prostate
HOP-92 NSCLC = system: HOP-92 NSCLC
KM12 colon = system: KM12 colon
MDA-MB-231 breast = system: MDA-MB-231 breast
MDA-MB-435 = system: MDA-MB-435
NCI/ADR-RES ovarian = system: NCI/ADR-RES ovarian
OVCAR-3 ovarian = system: OVCAR-3 ovarian
OVCAR-4 ovarian = system: OVCAR-4 ovarian
OVCAR-5 ovarian = system: OVCAR-5 ovarian
PC-3 prostate = system: PC-3 prostate
SF-268 CNS = system: SF-268 CNS
SF-539 CNS = system: SF-539 CNS
SK-MEL-2 melanoma = system: SK-MEL-2 melanoma
SK-MEL-28 melanoma = system: SK-MEL-28 melanoma
SK-MEL-5 melanoma = system: SK-MEL-5 melanoma
SK-OV-3 ovarian = system: SK-OV-3 ovarian
SW-620 colon = system: SW-620 colon
UACC-257 melanoma = system: UACC-257 melanoma
UO-31 renal = system: UO-31 renal
CCRF-CEM leukemia = system: CCRF-CEM leukemia
HCT-15 colon = system: HCT-15 colon
HS 578T breast = system: HS 578T breast
MALME-3M melanoma = system: MALME-3M melanoma
RPMI-8226 leukemia = system: RPMI-8226 leukemia
SF-295 CNS = system: SF-295 CNS
SN12C renal = system: SN12C renal
SNB-19 CNS = system: SNB-19 CNS
UACC-62 melanoma = system: UACC-62 melanoma
HL-60(TB) leukemia = system: HL-60(TB) leukemia
K-562 leukemia = system: K-562 leukemia
MOLT-4 leukemia = system: MOLT-4 leukemia
SNB-75 CNS = system: SNB-75 CNS
SR leukemia = system: SR leukemia
BT-549 breast = system: BT-549 breast
CAKI-1 renal = system: CAKI-1 renal
COLO 205 colon = system: COLO 205 colon
EKVX NSCLC = system: EKVX NSCLC
HCT-116 colon = system: HCT-116 colon
HT29 colon = system: HT29 colon
IGROV1 ovarian = system: IGROV1 ovarian
LOX IMVI melanoma = system: LOX IMVI melanoma
M14 melanoma = system: M14 melanoma
MCF7 breast = system: MCF7 breast
NCI-H226 lung = system: NCI-H226 lung
NCI-H23 lung = system: NCI-H23 lung
NCI-H460 lung = system: NCI-H460 lung
NCI-H522 lung = system: NCI-H522 lung
OVCAR-8 ovarian = system: OVCAR-8 ovarian
RXF 393 renal = system: RXF 393 renal
TK-10 renal = system: TK-10 renal
U251 CNS = system: U251 CNS

## c1ccc2cc(Cn3c[n+](Cc4ccc5ccccc5c4)c4ccccc43)ccc2c1
786-0 renal
  GI50: 1.52 µM
  TGI: 3.09 µM
A498 renal
  GI50: 1.08 µM
  TGI: 2.5 µM
A549 NSCLC
  GI50: 1.87 µM
  TGI: 3.88 µM
ACHN renal
  GI50: 1.94 µM
  TGI: 4 µM
DU-145 prostate
  GI50: 1.51 µM
  TGI: 2.88 µM
HOP-92 NSCLC
  GI50: 0.192 µM
  TGI: 1.57 µM
KM12 colon
  GI50: 1.54 µM
  TGI: 3.15 µM
MDA-MB-231 breast
  GI50: 1.1 µM
  TGI: 2.47 µM
MDA-MB-435
  GI50: 1.37 µM
  TGI: 2.74 µM
NCI/ADR-RES ovarian
  GI50: 16.6 µM
  TGI: 61.8 µM
OVCAR-3 ovarian
  GI50: 0.927 µM
  TGI: 2.22 µM
OVCAR-4 ovarian
  GI50: 1.19 µM
  TGI: 2.61 µM
OVCAR-5 ovarian
  GI50: 1.46 µM
  TGI: 2.89 µM
PC-3 prostate
  GI50: 1.1 µM
  TGI: 2.43 µM
SF-268 CNS
  GI50: 1.31 µM
  TGI: 2.72 µM
SF-539 CNS
  GI50: 1.59 µM
  TGI: 3 µM
SK-MEL-2 melanoma
  GI50: 1.64 µM
  TGI: 3.14 µM
SK-MEL-28 melanoma
  GI50: 1.52 µM
  TGI: 3.11 µM
SK-MEL-5 melanoma
  GI50: 0.556 µM
  TGI: 1.86 µM
SK-OV-3 ovarian
  GI50: 1.67 µM
  TGI: 3.4 µM
SW-620 colon
  GI50: 1.27 µM
  TGI: 2.75 µM
UACC-257 melanoma
  GI50: 1.39 µM
  TGI: 2.97 µM
UO-31 renal
  GI50: 1.74 µM
  TGI: 4.62 µM

## COc1cc(/C=C2\CN(S(=O)(=O)c3ccccc3)C/C(=C\c3cc(CN4CCCCC4)c(O)c(OC)c3)C2=O)cc(CN2CCCCC2)c1O
ACHN renal
  GI50: 1.54 µM
  TGI: 2.93 µM
CCRF-CEM leukemia
  GI50: 2.62 µM
  TGI: 7.25 µM
DU-145 prostate
  GI50: 1.73 µM
  TGI: 3.19 µM
HCT-15 colon
  GI50: 1.79 µM
  TGI: 3.78 µM
HS 578T breast
  GI50: 1.63 µM
  TGI: 4.31 µM
KM12 colon
  GI50: 1.73 µM
  TGI: 3.41 µM
MALME-3M melanoma
  GI50: 1.74 µM
  TGI: 3.39 µM
MDA-MB-231 breast
  GI50: 1.77 µM
  TGI: 3.47 µM
OVCAR-3 ovarian
  GI50: 1.72 µM
  TGI: 3.25 µM
PC-3 prostate
  GI50: 1.73 µM
  TGI: 3.4 µM
RPMI-8226 leukemia
  GI50: 2.29 µM
  TGI: 5.11 µM
SF-295 CNS
  GI50: 2.25 µM
  TGI: 5.01 µM
SK-OV-3 ovarian
  GI50: 1.93 µM
  TGI: 3.85 µM
SN12C renal
  GI50: 1.83 µM
  TGI: 3.63 µM
SNB-19 CNS
  GI50: 2 µM
  TGI: 4.58 µM
UACC-62 melanoma
  GI50: 1.65 µM
  TGI: 3.44 µM

## Cc1ccc(NC(=O)c2[nH]c(SCCN(C)C)nc2-c2ccc(F)cc2)cc1C#Cc1cnc2cccnn12
A498 renal
  GI50: 1.76 µM
  TGI: 3.32 µM
CCRF-CEM leukemia
  GI50: 2.08 µM
  TGI: 6.92 µM
DU-145 prostate
  GI50: 1.83 µM
  TGI: 3.34 µM
HL-60(TB) leukemia
  GI50: 1.38 µM
  TGI: 3.14 µM
HOP-92 NSCLC
  GI50: 1.08 µM
  TGI: 2.73 µM
K-562 leukemia
  GI50: 0.127 µM
  TGI: 1.55 µM
MOLT-4 leukemia
  GI50: 1.93 µM
  TGI: 4.83 µM
PC-3 prostate
  GI50: 2.12 µM
  TGI: 4.89 µM
RPMI-8226 leukemia
  GI50: 1.91 µM
  TGI: 6.05 µM
SK-MEL-2 melanoma
  GI50: 1.35 µM
  TGI: 3.16 µM
SK-OV-3 ovarian
  GI50: 1.92 µM
  TGI: 3.44 µM
SNB-75 CNS
  GI50: 1.59 µM
  TGI: 2.99 µM
SR leukemia
  GI50: 0.46 µM
  TGI: 2.22 µM
UACC-257 melanoma
  GI50: 1.88 µM
  TGI: 3.51 µM
UO-31 renal
  GI50: 1.38 µM
  TGI: 2.79 µM

## CO[C@@]12C[C@H]3[C@@H]([C@@H](O)[C@@H](OC(=O)/C=C/c4ccccc4)[C@@]4(O)C(C)(C)CCC[C@]34C)[C@@H](C)C1=CC(=O)O2
786-0 renal
  GI50: 24.8 µM
  TGI: > 100 µM
A498 renal
  GI50: 11.3 µM
  TGI: 26.3 µM
A549 NSCLC
  GI50: 3.64 µM
  TGI: 18.4 µM
ACHN renal
  GI50: 4.16 µM
  TGI: 17.8 µM
BT-549 breast
  GI50: 11.3 µM
  TGI: 27.9 µM
CAKI-1 renal
  GI50: 6.76 µM
  TGI: 30.8 µM
COLO 205 colon
  GI50: 5.42 µM
  TGI: 54.2 µM
DU-145 prostate
  GI50: 13.4 µM
  TGI: 78.8 µM
EKVX NSCLC
  GI50: 5.36 µM
  TGI: 57.5 µM
HCT-116 colon
  GI50: 8.8 µM
  TGI: > 100 µM
HCT-15 colon
  GI50: 4.51 µM
  TGI: 19.2 µM
HL-60(TB) leukemia
  GI50: 11.1 µM
  TGI: > 100 µM
HS 578T breast
  GI50: 7.8 µM
  TGI: 29.3 µM
HT29 colon
  GI50: 4.6 µM
  TGI: 26.5 µM
IGROV1 ovarian
  GI50: 29.5 µM
  TGI: > 100 µM
K-562 leukemia
  GI50: 12.5 µM
  TGI: > 100 µM
KM12 colon
  GI50: 6.74 µM
  TGI: 28.6 µM
LOX IMVI melanoma
  GI50: 4.14 µM
  TGI: 15.6 µM
M14 melanoma
  GI50: 18.2 µM
  TGI: > 100 µM
MCF7 breast
  GI50: 8.68 µM
  TGI: > 100 µM
MDA-MB-231 breast
  GI50: 0.585 µM
  TGI: 4.6 µM
MDA-MB-435
  GI50: 4.85 µM
  TGI: 28.2 µM
MOLT-4 leukemia
  GI50: > 100 µM
  TGI: > 100 µM
NCI-H226 lung
  GI50: 4.76 µM
  TGI: 18.8 µM
NCI-H23 lung
  GI50: 13.5 µM
  TGI: 42.2 µM
NCI-H460 lung
  GI50: 12.4 µM
  TGI: 82.9 µM
NCI-H522 lung
  GI50: 35.1 µM
  TGI: > 100 µM
NCI/ADR-RES ovarian
  GI50: 11 µM
  TGI: > 100 µM
OVCAR-3 ovarian
  GI50: 2.01 µM
  TGI: 11.6 µM
OVCAR-4 ovarian
  GI50: 5.03 µM
  TGI: 30.4 µM
OVCAR-5 ovarian
  GI50: 17.1 µM
  TGI: 48 µM
OVCAR-8 ovarian
  GI50: 5.24 µM
  TGI: 25.6 µM
PC-3 prostate
  GI50: 5.13 µM
  TGI: 29.2 µM
RPMI-8226 leukemia
  GI50: 3.58 µM
  TGI: 20.8 µM
RXF 393 renal
  GI50: 1.33 µM
  TGI: 7.93 µM
SF-268 CNS
  GI50: 6.78 µM
  TGI: 72.8 µM
SF-295 CNS
  GI50: 3.84 µM
  TGI: 44.1 µM
SF-539 CNS
  GI50: 12.4 µM
  TGI: 27.4 µM
SK-MEL-2 melanoma
  GI50: 27 µM
  TGI: > 100 µM
SK-MEL-28 melanoma
  GI50: 11.3 µM
  TGI: 35.4 µM
SK-MEL-5 melanoma
  GI50: 4.55 µM
  TGI: 18.3 µM
SN12C renal
  GI50: 4.84 µM
  TGI: 19.5 µM
SNB-19 CNS
  GI50: 16.1 µM
  TGI: > 100 µM
SNB-75 CNS
  GI50: 0.382 µM
  TGI: 2.46 µM
SR leukemia
  GI50: > 100 µM
  TGI: > 100 µM
SW-620 colon
  GI50: 12.2 µM
  TGI: 31.5 µM
TK-10 renal
  GI50: 6.15 µM
  TGI: > 100 µM
U251 CNS
  GI50: 3.29 µM
  TGI: 13.7 µM
UACC-257 melanoma
  GI50: 14.4 µM
  TGI: 32.1 µM
UACC-62 melanoma
  GI50: 1.55 µM
  TGI: 5.62 µM
UO-31 renal
  GI50: 16.6 µM
  TGI: > 100 µM
